Source: ChEMBL document CHEMBL5728023, “Inhibitors of TRPC6” (2020)

Biological target: T1, Short transient receptor potential channel 6 (Homo sapiens, UniProt Q9Y210)
T1 sequence (Q9Y210 whole entry): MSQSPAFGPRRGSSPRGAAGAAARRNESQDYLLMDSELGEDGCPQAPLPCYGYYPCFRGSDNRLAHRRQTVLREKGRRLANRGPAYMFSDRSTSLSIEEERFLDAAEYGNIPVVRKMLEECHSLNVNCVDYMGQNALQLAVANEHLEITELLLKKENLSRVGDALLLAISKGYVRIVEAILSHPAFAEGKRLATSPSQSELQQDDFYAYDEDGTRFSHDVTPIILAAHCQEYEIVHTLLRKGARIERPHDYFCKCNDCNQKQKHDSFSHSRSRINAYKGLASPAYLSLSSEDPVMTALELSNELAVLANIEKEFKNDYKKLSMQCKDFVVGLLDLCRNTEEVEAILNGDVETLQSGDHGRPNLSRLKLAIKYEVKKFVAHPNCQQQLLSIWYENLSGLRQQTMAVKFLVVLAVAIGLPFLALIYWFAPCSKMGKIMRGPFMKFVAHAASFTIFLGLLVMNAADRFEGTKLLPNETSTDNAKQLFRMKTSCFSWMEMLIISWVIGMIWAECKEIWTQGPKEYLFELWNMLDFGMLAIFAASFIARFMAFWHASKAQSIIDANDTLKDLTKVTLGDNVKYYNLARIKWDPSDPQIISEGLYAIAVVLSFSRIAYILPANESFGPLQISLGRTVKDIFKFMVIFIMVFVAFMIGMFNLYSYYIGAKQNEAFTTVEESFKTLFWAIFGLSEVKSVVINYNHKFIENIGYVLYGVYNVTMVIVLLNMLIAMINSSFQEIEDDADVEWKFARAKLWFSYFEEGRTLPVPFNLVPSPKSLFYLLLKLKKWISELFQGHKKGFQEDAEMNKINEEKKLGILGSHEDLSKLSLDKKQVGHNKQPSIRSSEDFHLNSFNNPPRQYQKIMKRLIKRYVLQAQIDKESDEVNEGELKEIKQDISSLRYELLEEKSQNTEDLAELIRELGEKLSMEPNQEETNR
Assay: High Throughput Screening Assay: This screening assay measures TRPC6 (transient receptor potential cation channel, subfamily C, member 6) ion channel activation via addition either of the commercially available DAG ligand analogue OAG (1-oleoyl-2-acetyl-sn-glycerol) or of the TRPC6 agonist 1-[1-(4,5,6,7,8-pentahydrocyclohepta[2,1-d]thiophen-2-ylcarbonyl)-4-piperidyl]-3-hydrobenzimidazol-2-one (GSK1702934A). The assay utilizes a FLIPR fluorescent calcium sensor 4-(6-Acetoxymethoxy-2,7-difluoro-3-oxo-9-xanthenyl)-4′-methyl-2,2′-(ethylenedioxy)dianiline-N,N,N′,N′-tetraacetic acid tetrakis(acetoxymethyl) ester (Fluo4/AM) […]. Changes (increases) in intracellular membrane calcium concentration potential as measured by the fluorescent signal increase during membrane depolarization provide a measurement of channel activity.The commercially available HEK293/TREx line (Invitrogen) was stably transfected with a TRPC6 construct and screened by conventional calcium imaging to find clones with TRPC6 expression following stimulation with 1 μg/ml tetracycline. These cells were maintained in the growth medium recommended by the manufacturer supplemented with 100 μg/ml hygromycin to promote retention of the TRPC6 construct. […]
Type: cell membranes

CCOc1cc(C(=O)N2C3CCC2CC(c2ccc(N)nn2)C3)ncc1Oc1ccc(F)cc1 (stereo unspecified) was tested, and the IC50 was 2100 nM.
